Experiment [1] deals with DU-145. Description: The concentration levels of spermine (SP) evaluated for the polyamine and analogue levels in DU145 cells treated with the compound concentration of 0 uM on fifth day of treatment. The experiment is classed as functional, cell-based. To be noted: Homo sapiens.
The test system of experiment [2] is DU-145. Description: The concentration levels of analogue evaluated for the polyamine and analogue levels in DU145 cells treated with the compound concentration of 0 uM on third day of treatment. The experiment is classed as functional, cell-based. Particulars: Homo sapiens.
Experiment [3] concerns DU-145. The experiment is described as follows: The concentration levels of analogue evaluated for the polyamine and analogue levels in DU145 cells treated with the compound concentration of 5 uM on third day of treatment. The experiment is classed as functional, cell-based. To be noted: Homo sapiens.
Experiment [4] has as its system DU-145. Description: The concentration levels of spermidine (SD), evaluated for the polyamine and analogue levels in DU145 cells treated with the compound concentration of 0 uM on third day of treatment. The experiment is classed as functional, cell-based. To be noted: Homo sapiens.
A further experiment has as its system U-251. Description: Growth inhibitory activity was measured for human U251MG NCI tumor cell line. The experiment is classed as functional. Particulars: read-out: ID50 (the source's name).
A further experiment has as its system PC-3. The experiment is described as follows: Growth inhibitory activity was measured for human PC-3 tumor cell line. The experiment is classed as functional. To be noted: read-out: ID50 (the source's name).
In experiment [5] the test system is DU-145. Description: The concentration levels of spermine (SP) evaluated for the polyamine and analogue levels in DU145 cells treated with the compound concentration of 5 uM on fifth day of treatment. The experiment is classed as functional, cell-based. Particulars: Homo sapiens.
Experiment [6] concerns DU-145. The experiment is described as follows: The concentration levels of putrescine (PU) evaluated for the polyamine and analogue levels in DU145 cells treated with the compound concentration of 0. uM on third day of treatment. Particulars: Homo sapiens. The experiment is classed as functional, cell-based.
The test system of experiment [7] is DU-145. The experiment is described as follows: The concentration levels of analogue evaluated for the polyamine and analogue levels in DU145 cells treated with the compound concentration of 0 uM on fifth day of treatment. The experiment is classed as functional, cell-based. Particulars: Homo sapiens.
Experiment [8] deals with DU-145. Description: The concentration levels of putrescine (PU) evaluated for the polyamine and analogue levels in DU145 cells treated with the compound concentration of 0 uM on fifth day of treatment. The experiment is classed as functional, cell-based. Particulars: Homo sapiens.
The next experiment deals with HT-29. The experiment is described as follows: Growth inhibitory activity was measured for human HT-29 tumor cell line. The experiment is classed as functional. Particulars: read-out: ID50 (the source's name).
Experiment [9] concerns DU-145. Description: The concentration levels of putrescine (PU) evaluated for the polyamine and analogue levels in DU145 cells treated with the compound concentration of 5 uM on fifth day of treatment. The experiment is classed as functional, cell-based. To be noted: Homo sapiens.
In experiment [10] the test system is DU-145. Description: The concentration levels of spermidine (SD), evaluated for the polyamine and analogue levels in DU145 cells treated with the compound concentration of 5 uM on third day of treatment. The experiment is classed as functional, cell-based. Particulars: Homo sapiens.
In experiment [11] the test system is DU-145. The experiment is described as follows: The concentration levels of spermidine (SD) evaluated for the polyamine and analogue levels in DU145 cells treated with the compound concentration of 5 uM on fifth day of treatment. The experiment is classed as functional, cell-based. To be noted: Homo sapiens.
The test system of experiment [12] is DU-145. Description: The concentration levels of spermine (SP), evaluated for the polyamine and analogue levels in DU145 cells treated with the compound concentration of 5 uM on fthird day of treatment. The experiment is classed as functional, cell-based. Particulars: Homo sapiens.
The subject of experiment [13] is DU-145. Description: The concentration levels of analogue evaluated for the polyamine and analogue levels in DU145 cells treated with the compound concentration of 5 uM on fifth day of treatment. The experiment is classed as functional, cell-based. Particulars: Homo sapiens.
A further experiment deals with A549. The experiment is described as follows: Growth inhibitory activity was measured for human A549 tumor cell line. The experiment is classed as functional. Particulars: read-out: ID50 (the source's name).
The test system of the next experiment is MCF7. Description: Growth inhibitory activity was measured for human MCF-7 tumor cell line. The experiment is classed as functional. To be noted: read-out: ID50 (the source's name).
Experiment [14] concerns DU-145. Description: The concentration levels of spermidine (SD) evaluated for the polyamine and analogue levels in DU145 cells treated with the compound concentration of 0 uM on fifth day of treatment. Particulars: Homo sapiens. The experiment is classed as functional, cell-based.
For experiment [15], the system named is DU-145. The experiment is described as follows: The concentration levels of spermine (SP), evaluated for the polyamine and analogue levels in DU145 cells treated with the compound concentration of 0 uM on third day of treatment. To be noted: Homo sapiens. The experiment is classed as functional, cell-based.
Experiment [16] concerns DU-145. The experiment is described as follows: The concentration levels of putrescine (PU) evaluated for the polyamine and analogue levels in DU145 cells treated with the compound concentration of 5 uM on third day of treatment. The experiment is classed as functional, cell-based. Particulars: Homo sapiens.
For experiment [17], the system named is DU-145. The experiment is described as follows: Growth inhibitory activity was measured for human DU145 tumor cell line. The experiment is classed as functional. Particulars: read-out: ID50 (the source's name).
In experiment [18] the test system is DU-145. Description: The concentration levels of analogue evaluated in DU145 cells treated with the compound concentration of 5 uM on third day of treatment. The experiment is classed as functional, cell-based. To be noted: Homo sapiens.
For experiment [19], the system named is DU-145. Description: The concentration levels of analogue evaluated in DU145 cells treated with the compound concentration of 0.02 uM on fifth day of treatment. To be noted: Homo sapiens. The experiment is classed as functional, cell-based.
In experiment [20] the test system is DU-145. Description: The concentration levels of analogue evaluated in DU145 cells treated with the compound concentration of 0.02 uM on third day of treatment. The experiment is classed as functional, cell-based. Particulars: Homo sapiens.
Experiment [21] has as its system DU-145. The experiment is described as follows: The concentration levels of spermine (SP), evaluated in DU145 cells treated with the compound concentration of 5 uM on third day of treatment. The experiment is classed as functional, cell-based. To be noted: Homo sapiens.
In experiment [22] the test system is DU-145. Description: The concentration levels of putrescine (PU) evaluated in DU145 cells treated with the compound concentration of 0.02 uM on third day of treatment. The experiment is classed as functional, cell-based. To be noted: Homo sapiens.
Experiment [23] concerns DU-145. The experiment is described as follows: The concentration levels of spermidine (SD), evaluated in DU145 cells treated with the compound concentration of 0.02 uM on third day of treatment. The experiment is classed as functional, cell-based. To be noted: Homo sapiens.
Experiment [24] concerns DU-145. The experiment is described as follows: The concentration levels of spermidine (SD) evaluated in DU145 cells treated with the compound concentration of 5 uM on fifth day of treatment. Particulars: Homo sapiens. The experiment is classed as functional, cell-based.
Experiment [25] deals with DU-145. The experiment is described as follows: The concentration levels of spermine (SP) evaluated in DU145 cells treated with the compound concentration of 5 uM on fifth day of treatment. The experiment is classed as functional, cell-based. To be noted: Homo sapiens.
The subject of experiment [26] is DU-145. The experiment is described as follows: The concentration levels of putrescine (PU) evaluated in DU145 cells treated with the compound concentration of 5 uM on third day of treatment. To be noted: Homo sapiens. The experiment is classed as functional, cell-based.
Experiment [27] concerns DU-145. The experiment is described as follows: The concentration levels of spermine (SP), evaluated in DU145 cells treated with the compound concentration of 0.02 uM on third day of treatment. The experiment is classed as functional, cell-based. Particulars: Homo sapiens.
The test system of experiment [28] is DU-145. Description: The concentration levels of spermine (SP) evaluated in DU145 cells treated with the compound concentration of 0.02 uM on fifth day of treatment. To be noted: Homo sapiens. The experiment is classed as functional, cell-based.
In experiment [29] the test system is DU-145. Description: The concentration levels of spermidine (SD) evaluated in DU145 cells treated with the compound concentration of 0.02 uM on fifth day of treatment. The experiment is classed as functional, cell-based. To be noted: Homo sapiens.
For experiment [30], the system named is DU-145. Description: The concentration levels of putrescine (PU) evaluated in DU145 cells treated with the compound concentration of 0.02 uM on fifth day of treatment. The experiment is classed as functional, cell-based. Particulars: Homo sapiens.
The test system of experiment [31] is DU-145. Description: The concentration levels of spermidine (SD), evaluated in DU145 cells treated with the compound concentration of 5 uM on third day of treatment. Particulars: Homo sapiens. The experiment is classed as functional, cell-based.
For experiment [32], the system named is DU-145. Description: The concentration levels of putrescine (PU) evaluated in DU145 cells treated with the compound concentration of 5 uM on fifth day of treatment. The experiment is classed as functional, cell-based. To be noted: Homo sapiens.
Experiment [33] has as its system DU-145. The experiment is described as follows: The concentration levels of analogue evaluated in DU145 cells treated with the compound concentration of 5 uM on fifth day of treatment. The experiment is classed as functional, cell-based. To be noted: Homo sapiens.

Bounds are passed on as bounds.

As to `CCNCCCNCC#CCNCCCNCC`, the Concentration (nM (10e6*cells)-1) came out at 1.55 in the experiment with DU-145 [1]; 0.06 in the experiment with DU-145 [2]; 2.16 in the experiment with DU-145 [3]; 1.73 in the experiment with DU-145 [4]; 1.33 in the experiment on DU-145 [5]; 0.11 in the experiment with DU-145 [6]. Further, the Concentration (nM (10e6*cells)-1) was found to be 0.03 with DU-145 [7]; 0.03 with DU-145 [8]; 0.06 with DU-145 [9]; 0.9 in the experiment on DU-145 [10]; 0.59 with DU-145 [11]; 2.56 in the experiment with DU-145 [12]. In addition, the Concentration (nM (10e6*cells)-1) was found to be 1.71 in the experiment with DU-145 [13], 1.55 with DU-145 [14], 3.13 in the experiment with DU-145 [15] and 0.04 in the experiment on DU-145 [16]. The IC50 with U-251 is > 31200 nM; with PC-3 (Homo sapiens, PC-3), > 31.2 µM; with HT-29 (Homo sapiens, HT-29) it was > 31200 nM; in the experiment with A549 (Homo sapiens, A549) it was > 31200 nM; in the experiment with MCF7 it was > 31.2 µM.

With `CCNCCCNC/C=C/CNCCCNCC`, the IC50 in the experiment on DU-145 [17] (Homo sapiens, DU-145) worked out at 140 nM.

For the molecule `CCNCCCNC/C=C\CNCCCNCC`, the Concentration (nM (10e6*cells)-1) was 2.76 with DU-145 [18]; 0.03 with DU-145 [19]; 0.04 in the experiment with DU-145 [20]; 0.09 in the experiment with DU-145 [21]; 0.11 in the experiment on DU-145 [22]; 1.79 in the experiment on DU-145 [23]. For the same molecule, the Concentration (nM (10e6*cells)-1) came to 0.02 in the experiment on DU-145 [24]; 0.07 with DU-145 [25]; 0.06 in the experiment on DU-145 [26]; 2.99 in the experiment on DU-145 [27]; 1.71 in the experiment on DU-145 [28]; 1.73 in the experiment with DU-145 [29]. In addition, the Concentration (nM (10e6*cells)-1) with DU-145 [30] turned out to be 0.04; in the experiment on DU-145 [31], 0.02; in the experiment on DU-145 [32] it was 0.03; with DU-145 [33], 2.54. In addition, the IC50 worked out at 250 nM in the experiment with A549 (Homo sapiens, A549) and 50 nM in the experiment with DU-145 [17] (Homo sapiens, DU-145).

On to `CCNCCCNCC1CC1CNCCCNCC` (stereo in doubt; 5), for which the IC50 in the experiment on PC-3 was 12.4 µM; in the experiment on HT-29, 1400 nM; in the experiment on A549, 250 nM; in the experiment on DU-145 [17], 60 nM.

Regarding `CCNCCCNCC1CC1CNCCCNCC` (stereo in doubt; 9), the results for the IC50 with U-251, in the experiment with A549 and with DU-145 [17] were 100 nM, 120 nM and 20 nM, respectively.

(Values after ChEMBL document CHEMBL1131189, “Conformationally restricted analogues of 1N,12N-bisethylspermine: synthesis and growth inhibitory effects on human tumor cell lines” (1998).)
